Legend:
[1] = molecular target: Gonadotropin-releasing hormone receptor (Macaca mulatta); assay: […] inhibition of monkey Gonadotropin releasing hormone receptor
[2] = molecular target: Gonadotropin-releasing hormone receptor (Macaca mulatta); assay: […] inhibition of monkey Gonadotropin-releasing hormone receptor

Compound | Ki [1] | Ki [2]
COc1cccc(-c2c(C)n(Cc3c(F)cccc3F)c(=O)n(C[C@@H](C)NCc3nccs3)c2=O)c1F [1-(2,6-Difluoro-benzyl)-5-(2-fluoro-3-methoxy-phenyl)-6-methyl-3-{(R)-2-[(thiazol-2-ylmethyl)-amino]-propyl}-1H-pyrimidine-2,4-dione] | 820 nM | 
COc1cccc(-c2c(C)n(Cc3c(F)cccc3F)c(=O)n(C[C@H](C)NCc3sccc3C)c2=O)c1F [1-(2,6-Difluoro-benzyl)-5-(2-fluoro-3-methoxy-phenyl)-6-methyl-3-{(S)-2-[(3-methyl-thiophen-2-ylmethyl)-amino]-propyl}-1H-pyrimidine-2,4-dione] |  | 87 nM
COc1cccc(-c2c(C)n(Cc3c(F)cccc3F)c(=O)n(C[C@H](C)NCc3ccccc3)c2=O)c1F [3-((S)-2-Benzylamino-propyl)-1-(2,6-difluoro-benzyl)-5-(2-fluoro-3-methoxy-phenyl)-6-methyl-1H-pyrimidine-2,4-dione] |  | 550 nM

Source: BindingDB's records for doi:10.1021/jm030472z (Neurocrine Biosciences, 2004)
